Reference: US20060241172A1, “Benzodioxane and benzodioxolane derivatives and uses thereof” (Wyeth, priority 2005, published 2006)
Structures can show the parent of a compound that is named as a salt. Where two headings read alike, the source gives them in different places.

Key:
[1] = biological target: T1, human 5-HT2C receptor (Homo sapiens, UniProt P28335); test: 5-HT2C receptor-stimulated calcium mobilization (FLIPR) in CHO cells; format: cell-based; conditions: for Emax: CHO, read-out: 5-HT2C Function EMax (%)
T1 sequence (P28335 33-458): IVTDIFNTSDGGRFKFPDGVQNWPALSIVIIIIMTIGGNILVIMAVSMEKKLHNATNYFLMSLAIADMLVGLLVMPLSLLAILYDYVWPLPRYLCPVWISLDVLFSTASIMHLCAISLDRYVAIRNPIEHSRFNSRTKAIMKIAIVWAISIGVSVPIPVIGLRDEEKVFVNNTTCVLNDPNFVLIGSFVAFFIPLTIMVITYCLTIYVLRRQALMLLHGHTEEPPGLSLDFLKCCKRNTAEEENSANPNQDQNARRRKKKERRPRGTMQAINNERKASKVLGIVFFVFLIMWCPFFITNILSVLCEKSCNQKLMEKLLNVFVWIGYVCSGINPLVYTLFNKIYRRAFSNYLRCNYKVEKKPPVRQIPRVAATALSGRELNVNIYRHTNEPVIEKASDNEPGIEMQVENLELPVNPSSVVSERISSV

Row | melting point | SMILES | also measured
1 | 172 to 173 °C | CNCC1COc2cccc(-c3cc(Cl)ccc3OC)c2O1 (centres unmarked) (as salt: fumarate) [Compound I-31, {[8-(5-Chloro-2-methoxyphenyl)-2,3-dihydro-1,4-benzodioxin-2-yl]methyl}methylamine] | –
2 | 168 to 169 °C | CNCC1COc2cccc(-c3ccccc3OC)c2O1 (centres unmarked) (as salt: fumarate) [Compound I-19, {[8-(2-Methoxyphenyl)-2,3-dihydro-1,4-benzodioxin-2-yl]methyl}methylamine] | –
3 | 189 to 190 °C | NCC1COc2cccc(-c3cccc(F)c3F)c2O1 (centres unmarked) (as salt: fumarate) [Compound I-13, {[8-(2,3-Difluorophenyl)-2,3-dihydro-1,4-benzodioxin-2-yl]methyl}amine] | –

The remaining lines, values behind:

Row | SMILES | melting point | also measured
4 | NC[C@@H]1Oc2cc(F)cc(-c3c(Cl)cccc3Cl)c2O1 (as salt: hydrochloride) [Compound I-86, 1-[(2R)-4-(2,6-dichlorophenyl)-6-fluoro-1,3-benzodioxol-2-yl]methanamine] | 206 to 208 °C | –
5 | NCC1Oc2cc(Cl)cc(-c3ccc(Cl)cc3Cl)c2O1 (centres unmarked) (as salt: hydrochloride) [Compound I-96, [6-Chloro-4-(2,4-dichloro-phenyl)-benzo[1,3]dioxol-2-yl]-methylamine] | > 250 °C | –
6 | NCC1Oc2cc(Cl)cc(-c3cc(Cl)ccc3Cl)c2O1 (centres unmarked) (as salt: hydrochloride) [Compound I-98, [6-Chloro-4-(2,5-dichloro-phenyl)-benzo[1,3]dioxol-2-yl]-methylamine] | 246 to 248 °C | –
7 | COc1cccc(-c2cc(Cl)cc3c2OC(CN)O3)c1OC (centres unmarked) (as salt: hydrochloride) [Compound I-95, [6-Chloro-4-(2,3-dimethoxy-phenyl)-benzo[1,3]dioxol-2-yl]-methylamine] | 228 to 230 °C | –
8 | Cc1cc(Cl)ccc1-c1cc(Cl)cc2c1OC(CN)O2 (centres unmarked) (as salt: hydrochloride) [Compound I-97, [6-Chloro-4-(4-chloro-2-methyl-phenyl)-benzo[1,3]dioxol-2-yl]-methylamine] | > 250 °C | –
9 | NCC1COc2cccc(-c3ccc(Cl)cc3Cl)c2O1 (centres unmarked) (as salt: fumarate) [Compound I-7, {[8-(2,4-Dichlorophenyl)-2,3-dihydro-1,4-benzodioxin-2-yl]methyl}amine] | 192 to 193 °C | –
10 | COc1ccc(Cl)cc1-c1cccc2c1OC(CN)CO2 (centres unmarked) (as salt: fumarate) [Compound I-16, {[8-(5-Chloro-2-methoxyphenyl)-2,3-dihydro-1,4-benzodioxin-2-yl]methyl}amine] | 192 to 193 °C | –
11 | COc1ccc(Cl)cc1-c1cc(Cl)cc2c1OC(CN)O2 (centres unmarked) (as salt: hydrochloride) [Compound I-94, [6-Chloro-4-(2-methoxy-5-chloro-phenyl)-benzo[1,3]dioxol-2-yl]-methylamine] | 228 to 230 °C | –
12 | NC[C@H]1COc2cccc(-c3ccccc3C(F)(F)F)c2O1 (as salt: fumarate) [Compound I-57, 1-{(2S)-8-[2-(trifluoromethyl)phenyl]-2,3-dihydro-1,4-benzodioxin-2-yl}methanamine] | 205 to 206 °C | –
13 | NCC1COc2cccc(-c3ccccc3C(F)(F)F)c2O1 (centres unmarked) (as salt: fumarate) [Compound I-4, ({8-[2-(Trifluoromethyl)phenyl]-2,3-dihydro-1,4-benzodioxin-2-yl}methyl)amine] | 208 to 209 °C | –
14 | CN(C)CC1COc2cccc(-c3ccc(Cl)cc3Cl)c2O1 (centres unmarked) (as salt: fumarate) [Compound I-39, {[8-(2,4-Dichlorophenyl)-2,3-dihydro-1,4-benzodioxin-2-yl]methyl}dimethylamine] | 232 to 233 °C | –
15 | Cc1cccc(C)c1-c1cccc2c1OC(CN)CO2 (centres unmarked) (as salt: fumarate) [Compound I-12, {[8-(2,6-Dimethylphenyl)-2,3-dihydro-1,4-benzodioxin-2-yl]methyl}amine] | 205 to 206 °C | –
16 | NCC1Oc2cc(Cl)cc(-c3cc(F)ccc3F)c2O1 (centres unmarked) (as salt: hydrochloride) [Compound I-99, [6-Chloro-4-(2,5-difluoro-phenyl)-benzo[1,3]dioxol-2-yl]-methylamine] | > 250 °C | –
17 | NC[C@H]1COc2cc(Cl)cc(-c3ccc(Cl)cc3Cl)c2O1 (as salt: hydrochloride) [Compound I-64, (2S)-[6-Chloro-8-(2,4-dichloro-phenyl)-2,3-dihydro-benzo[1,4]dioxin-2-yl]-methyl amine] | 140 °C | –
18 | NC[C@H]1COc2cc(Cl)cc(-c3ccccc3Cl)c2O1 (as salt: hydrochloride) [Compound I-58, (2S)-[6-Chloro-8-(2-chloro-phenyl)-2,3-dihydro-benzo[1,4]dioxin-2-yl]-methylamine] | 228 to 230 °C | –
19 | Clc1ccccc1-c1cccc2c1OC(CNC1CC1)CO2 (centres unmarked) (as salt: fumarate) [Compound I-43, N-{[8-(2-Chlorophenyl)-2,3-dihydro-1,4-benzodioxin-2yl]methyl}cyclopropanamine] | 148 to 149 °C | –
20 | NCC1Oc2cc(Cl)cc(-c3ccccc3Cl)c2O1 (centres unmarked) (as salt: hydrochloride) [Compound I-90, [6-Chloro-4-(2-chloro-phenyl)-benzo[1,3]dioxol-2-yl]-methylamine] | > 250 °C | –
21 | Cc1cc(Cl)ccc1-c1cc(Cl)cc2c1O[C@@H](CN)CO2 (as salt: hydrochloride) [Compound I-65, (2S)-[6-Chloro-8-(4-chloro-2-methyl-phenyl)-2,3-dihydro-benzo[1,4]dioxin-2-yl]-methylamine] | 110 °C | –
22 | CNCC1COc2cccc(-c3cc(F)ccc3F)c2O1 (centres unmarked) [Compound I-29, {[8-(2,5-Difluorophenyl)-2,3-dihydro-1,4-benzodioxin-2-yl]methyl}methylamine] | – | EC50 ([1]; read-out: 5-HT2C Function EC50): > 500 nM
23 | CNCC1COc2cccc(-c3cccc(F)c3F)c2O1 (centres unmarked) [Compound I-27, {[8-(2,3-Difluorophenyl)-2,3-dihydro-1,4-benzodioxin-2-yl]methyl}methylamine] | – | Emax [1]: 20%; EC50 ([1]; read-out: 5-HT2C Function EC50): 100 to 500 nM
24 | CNCC1COc2cccc(-c3cc(C)ccc3C)c2O1 (centres unmarked) [Compound I-26, {[8-(2,5-Dimethylphenyl)-2,3-dihydro-1,4-benzodioxin-2-yl]methyl}methylamine] | – | Emax [1]: 50%; EC50 ([1]; read-out: 5-HT2C Function EC50): < 100 nM
25 | CNCC1COc2cccc(-c3ccc(F)cc3F)c2O1 (centres unmarked) [Compound I-28, {[8-(2,4-Difluorophenyl)-2,3-dihydro-1,4-benzodioxin-2-yl]methyl}methylamine] | – | Emax [1]: 30%; EC50 ([1]; read-out: 5-HT2C Function EC50): > 500 nM
26 | CNCC1COc2cccc(-c3cccc(Cl)c3Cl)c2O1 (centres unmarked) [Compound I-22, {[8-(2,3-Dichlorophenyl)-2,3-dihydro-1,4-benzodioxin-2-yl]methyl}methylamine] | – | Emax [1]: 40%; EC50 ([1]; read-out: 5-HT2C Function EC50): < 100 nM
27 | CNCC1COc2cccc(-c3ccccc3C)c2O1 (centres unmarked) [Compound I-17, N-Methyl-N-{[8-(2-methylphenyl)-2,3-dihydro-1,4-benzodioxin-2-yl]methyl}amine] | – | Emax [1]: 60%; EC50 ([1]; read-out: 5-HT2C Function EC50): < 100 nM
28 | Cc1cc2c(cc1Cl)N(C(=O)Nc1ccc(Oc3cccnc3C)nc1)CC2 [SB242084, reference compound] | – | EC50 ([1]; reference compounds, read-out: EC50): 0.01 nM
29 | CNCC1COc2cccc(-c3cccc(C)c3C)c2O1 (centres unmarked) [Compound I-25, {[8-(2,3-Dimethylphenyl)-2,3-dihydro-1,4-benzodioxin-2-yl]methyl}methylamine] | – | Emax [1]: 30%; EC50 ([1]; read-out: 5-HT2C Function EC50): > 500 nM
